Results on five molecules are retold here after article PMC6835155, “Lessons from LIMK1 enzymology and their impact on inhibitor design” (Biochemical Journal, 2019).

SMILES strings stand for the structures. Where two headings read alike, the source gives them in different places.

As a reminder, the IC50 is the concentration needed to halve the response being measured.

The target of experiment [1] is T1, LIMK2KD (Homo sapiens, UniProt P53671).
T1 construct: The cDNA coding for LIMK2 residues 330 to 632 was PCR amplified; His6 (N, cleaved yes); made in house; host or cells: baculovirus; Sf9 for virus, TriEx insect cells for expression
In words: Differential (dynamic) scanning fluorimetry (DSF) assay, LIMK2KD. The format is binding. To be noted: LIMK2KD, compound 10 µM, single shot; for ΔTm at 10 µM: read-out: TM Shift LIMK2 (K).

The target of experiment [2] is T2, LIMK1KD (Homo sapiens, UniProt P53667).
T2 construct: His6 (N, cleaved yes); made in house; host or cells: baculovirus; Sf9 for virus, TriEx insect cells for expression
In words: Differential (dynamic) scanning fluorimetry (DSF) assay, LIMK1KD. The format is binding. Particulars: 2 µM LIMK1KD, compound 10 µM, single shot; for ΔTm at 10 µM: read-out: TM Shift LIMK1 (K).

The target of experiment [3] is T2, LIMK1KD. In words: RapidFire mass spec kinase activity assay (CFL1 phosphorylation). The format is biochemical. Particulars: 40 nM LIMK1KD, 2 µM CFL1, 800 µM ATP, 60 min; read-out: LIMK1 IC50.
Experiment [4] relates to LIMK1. To be noted: cited from earlier work.

T2 sequence (P53667 330-637): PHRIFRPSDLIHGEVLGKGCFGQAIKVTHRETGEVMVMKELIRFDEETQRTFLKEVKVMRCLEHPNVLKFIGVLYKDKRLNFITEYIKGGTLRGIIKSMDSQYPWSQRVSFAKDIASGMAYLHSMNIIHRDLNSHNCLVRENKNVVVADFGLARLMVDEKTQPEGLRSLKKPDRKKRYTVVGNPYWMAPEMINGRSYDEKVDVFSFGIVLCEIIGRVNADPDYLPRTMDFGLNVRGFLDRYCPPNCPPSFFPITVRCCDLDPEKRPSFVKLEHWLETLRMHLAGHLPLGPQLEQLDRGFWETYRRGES
T1 sequence (P53671 330-632): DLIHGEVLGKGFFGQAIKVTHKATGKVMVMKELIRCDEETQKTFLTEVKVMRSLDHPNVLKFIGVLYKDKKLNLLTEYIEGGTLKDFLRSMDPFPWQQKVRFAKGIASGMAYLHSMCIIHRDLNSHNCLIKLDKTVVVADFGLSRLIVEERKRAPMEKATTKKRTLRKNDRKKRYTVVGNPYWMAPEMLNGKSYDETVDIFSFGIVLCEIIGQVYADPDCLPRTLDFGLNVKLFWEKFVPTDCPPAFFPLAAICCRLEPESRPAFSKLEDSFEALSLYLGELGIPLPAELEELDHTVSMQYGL

For the molecule `CNC(=O)c1cc(Oc2ccc(NC(=O)Nc3cc(C(C)(C)C)nn3-c3ccc4ncccc4c3)c(F)c2)ccn1` [DCC-2036 (Rebastinib), Rebastinib], the ΔTm at 10 µM was 4.8 °C in experiment [1] and 10 °C in experiment [2]. Further, the IC50 in experiment [3] turned out to be 75 nM.
For the molecule `CC(C)(C)c1nc(-c2cccc(NS(=O)(=O)c3c(F)cccc3F)c2F)c(-c2ccnc(N)n2)s1` [Dabrafenib (GSK2118436), Dabrafenib], the “TM Shift LIMK2 (K)” value in experiment [1] (10 µM) is given as 11 K. Further, the ΔTm at 10 µM in experiment [1] worked out at 11.1 °C. In experiment [2], the “TM Shift LIMK1 (K)” value came to 10 K and the ΔTm at 10 µM was determined as 10.3 °C. Besides, the IC50 in experiment [3] is 14 nM.
In the case of `CC(C)C(=O)Nc1ncc(-c2cc(C(F)F)nn2-c2c(Cl)cccc2Cl)s1` [LIMKi3], in experiment [4] (read-out: LIMK1 in vitro IC50), the IC50 is […].
Turning to `Cc1c[nH]c2ncnc(N3CCC(CN)(C(=O)Nc4cccc(OC(=O)N(C)C)c4)CC3)c12` [LX-7101], the IC50 in experiment [4] (read-out: LIMK1 IC50) was 32 nM.
Regarding `Cn1cc(-c2[nH]c3cc(NC(=O)[C@H](N)C4CCCCC4)cc4c3c2C=NNC4=O)cn1` [PF-477736], the ΔTm at 10 µM in experiment [1] amounted to 9 °C. Further, in experiment [2], the “TM Shift LIMK1 (K)” value was found to be 11 K and the ΔTm at 10 µM was determined as 11.1 °C. Further, the IC50 in experiment [3] was determined as 4.4 nM.
